Measurements taken from ChEMBL document CHEMBL5723585, “Data for DCP probe JNJ-54082730” (2024).

How the values were obtained:
[1] = target: 5-hydroxytryptamine receptor 1B (Homo sapiens) (UniProt P28222); assay: 5-HT1B Eurofins-Cerep binding assay; design: ligand concentration 1 nM; details: filed as antagonist, Compound concentration 10.0 uM
[2] = target: Kappa-type opioid receptor (Homo sapiens) (UniProt P41145); assay: kappa (KOP) Eurofins-Cerep binding assay; details: filed as agonist, Compound concentration 10.0 uM
[3] = target: 5-hydroxytryptamine receptor 1A (Homo sapiens) (UniProt P08908); assay: 5-HT1A Eurofins-Cerep binding assay; design: ligand concentration 0.5 nM; details: filed as agonist, Compound concentration 10.0 uM
[4] = target: 5-hydroxytryptamine receptor 2B (Homo sapiens) (UniProt P41595); assay: 5-HT2B Eurofins-Cerep binding assay; details: filed as agonist, Compound concentration 10.0 uM
[5] = target: 5-hydroxytryptamine receptor 3A (Homo sapiens) (UniProt P46098); assay: 5-HT3 Eurofins-Cerep binding assay; design: ligand concentration 0.5 nM; details: filed as antagonist, Compound concentration 10.0 uM
Sequence of 5-hydroxytryptamine receptor 3A (Homo sapiens) (P46098 whole entry): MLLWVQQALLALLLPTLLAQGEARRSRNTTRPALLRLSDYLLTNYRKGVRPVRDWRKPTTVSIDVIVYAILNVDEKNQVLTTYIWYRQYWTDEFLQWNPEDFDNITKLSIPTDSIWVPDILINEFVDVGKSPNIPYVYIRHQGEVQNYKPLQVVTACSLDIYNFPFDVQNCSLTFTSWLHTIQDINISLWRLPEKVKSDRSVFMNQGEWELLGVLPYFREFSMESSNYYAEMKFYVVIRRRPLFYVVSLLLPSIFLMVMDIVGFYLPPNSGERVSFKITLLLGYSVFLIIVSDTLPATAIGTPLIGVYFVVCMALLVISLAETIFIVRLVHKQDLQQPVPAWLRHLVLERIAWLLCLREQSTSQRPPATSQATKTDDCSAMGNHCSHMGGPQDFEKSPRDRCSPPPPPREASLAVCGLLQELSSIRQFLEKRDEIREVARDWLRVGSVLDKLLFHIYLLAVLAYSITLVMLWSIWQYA

[6] = target: Adenosine receptor A2a (Homo sapiens) (UniProt P29274); assay: A2A Eurofins-Cerep binding assay; design: ligand concentration 6 nM; details: filed as agonist, Compound concentration 10.0 uM
[7] = target: Beta-1 adrenergic receptor (Homo sapiens) (UniProt P08588); assay: beta 1 Eurofins-Cerep binding assay; design: ligand concentration 0.3 nM; details: filed as agonist, Compound concentration 10.0 uM
Sequence of Beta-1 adrenergic receptor (Homo sapiens) (P08588 whole entry, looked up): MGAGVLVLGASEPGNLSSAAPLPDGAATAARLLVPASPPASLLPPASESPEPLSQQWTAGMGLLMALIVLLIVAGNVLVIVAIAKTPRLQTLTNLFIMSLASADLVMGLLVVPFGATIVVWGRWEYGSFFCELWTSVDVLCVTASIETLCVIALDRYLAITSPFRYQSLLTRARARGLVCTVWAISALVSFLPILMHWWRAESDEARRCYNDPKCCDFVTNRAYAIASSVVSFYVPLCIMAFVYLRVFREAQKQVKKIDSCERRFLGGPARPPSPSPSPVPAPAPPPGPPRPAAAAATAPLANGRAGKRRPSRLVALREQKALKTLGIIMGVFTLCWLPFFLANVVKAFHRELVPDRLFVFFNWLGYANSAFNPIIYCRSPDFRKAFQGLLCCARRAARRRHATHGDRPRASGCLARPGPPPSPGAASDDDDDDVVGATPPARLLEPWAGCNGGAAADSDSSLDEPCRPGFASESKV

[8] = target: Cholecystokinin receptor type A (Homo sapiens) (UniProt P32238); assay: CCK1 (CCKA) Eurofins-Cerep binding assay; design: ligand concentration 0.08 nM; details: filed as agonist, Compound concentration 10.0 uM
[9] = target: D(1A) dopamine receptor (Homo sapiens) (UniProt P21728); assay: D1 Eurofins-Cerep binding assay; design: ligand concentration 0.3 nM; details: filed as antagonist, Compound concentration 10.0 uM
[10] = target: Sodium-dependent dopamine transporter (Homo sapiens) (UniProt Q01959); assay: dopamine transporter Eurofins-Cerep binding assay; details: filed as antagonist, Compound concentration 10.0 uM
[11] = target: Delta-type opioid receptor (Homo sapiens) (UniProt P41143); assay: delta (DOP) Eurofins-Cerep binding assay; design: ligand concentration 0.5 nM; details: filed as agonist, Compound concentration 10.0 uM
Sequence of Delta-type opioid receptor (Homo sapiens) (P41143 whole entry): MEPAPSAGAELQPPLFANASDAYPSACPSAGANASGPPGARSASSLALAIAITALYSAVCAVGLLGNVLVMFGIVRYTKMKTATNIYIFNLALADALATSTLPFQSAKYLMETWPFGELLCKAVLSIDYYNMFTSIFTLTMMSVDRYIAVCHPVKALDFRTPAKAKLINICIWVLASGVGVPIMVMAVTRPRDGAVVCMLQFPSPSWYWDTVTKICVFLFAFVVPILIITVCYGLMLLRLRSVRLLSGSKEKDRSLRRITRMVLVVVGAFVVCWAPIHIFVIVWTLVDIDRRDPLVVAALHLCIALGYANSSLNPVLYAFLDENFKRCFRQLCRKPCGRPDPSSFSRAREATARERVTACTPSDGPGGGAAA

[12] = target: Endothelin-1 receptor (Homo sapiens) (UniProt P25101); assay: ETA Eurofins-Cerep binding assay; design: ligand concentration 0.03 nM; details: filed as agonist, Compound concentration 10.0 uM
[13] = target: Histamine H1 receptor (Homo sapiens) (UniProt P35367); assay: H1 Eurofins-Cerep binding assay; design: ligand concentration 1 nM; details: filed as antagonist, Compound concentration 10.0 uM
[14] = target: Histamine H2 receptor (Homo sapiens) (UniProt P25021); assay: H2 Eurofins-Cerep binding assay; design: ligand concentration 0.075 nM; details: filed as antagonist, Compound concentration 10.0 uM
Rattus norvegicus [15] = species on record: Rattus norvegicus; assay: KV channel Eurofins-Cerep binding assay; design: ligand concentration 0.01 nM; details: filed as antagonist, Compound concentration 10.0 uM
[16] = target: Muscarinic acetylcholine receptor M1 (Homo sapiens) (UniProt P11229); assay: M1 Eurofins-Cerep binding assay; design: ligand concentration 2 nM; details: filed as antagonist, Compound concentration 10.0 uM
[17] = target: Muscarinic acetylcholine receptor M2 (Homo sapiens) (UniProt P08172); assay: M2 Eurofins-Cerep binding assay; design: ligand concentration 2 nM; details: filed as antagonist, Compound concentration 10.0 uM
Sequence of Muscarinic acetylcholine receptor M2 (Homo sapiens) (P08172 whole entry): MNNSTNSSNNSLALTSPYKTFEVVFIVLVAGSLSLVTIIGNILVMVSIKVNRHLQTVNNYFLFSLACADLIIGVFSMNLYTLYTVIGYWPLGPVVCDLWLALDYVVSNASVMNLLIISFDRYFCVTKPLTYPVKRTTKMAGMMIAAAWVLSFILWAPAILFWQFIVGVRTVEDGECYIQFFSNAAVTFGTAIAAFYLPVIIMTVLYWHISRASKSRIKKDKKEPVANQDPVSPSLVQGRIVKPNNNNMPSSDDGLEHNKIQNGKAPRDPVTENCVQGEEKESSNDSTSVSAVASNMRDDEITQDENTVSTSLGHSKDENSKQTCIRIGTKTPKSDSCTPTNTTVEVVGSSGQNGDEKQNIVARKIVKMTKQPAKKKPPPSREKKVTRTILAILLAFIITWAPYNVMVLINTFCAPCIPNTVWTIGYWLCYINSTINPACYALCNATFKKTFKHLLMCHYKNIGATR

[18] = target: Muscarinic acetylcholine receptor M3 (Homo sapiens) (UniProt P20309); assay: M3 Eurofins-Cerep binding assay; design: ligand concentration 0.2 nM; details: filed as antagonist, Compound concentration 10.0 uM
Sequence of Muscarinic acetylcholine receptor M3 (Homo sapiens) (P20309 whole entry, looked up): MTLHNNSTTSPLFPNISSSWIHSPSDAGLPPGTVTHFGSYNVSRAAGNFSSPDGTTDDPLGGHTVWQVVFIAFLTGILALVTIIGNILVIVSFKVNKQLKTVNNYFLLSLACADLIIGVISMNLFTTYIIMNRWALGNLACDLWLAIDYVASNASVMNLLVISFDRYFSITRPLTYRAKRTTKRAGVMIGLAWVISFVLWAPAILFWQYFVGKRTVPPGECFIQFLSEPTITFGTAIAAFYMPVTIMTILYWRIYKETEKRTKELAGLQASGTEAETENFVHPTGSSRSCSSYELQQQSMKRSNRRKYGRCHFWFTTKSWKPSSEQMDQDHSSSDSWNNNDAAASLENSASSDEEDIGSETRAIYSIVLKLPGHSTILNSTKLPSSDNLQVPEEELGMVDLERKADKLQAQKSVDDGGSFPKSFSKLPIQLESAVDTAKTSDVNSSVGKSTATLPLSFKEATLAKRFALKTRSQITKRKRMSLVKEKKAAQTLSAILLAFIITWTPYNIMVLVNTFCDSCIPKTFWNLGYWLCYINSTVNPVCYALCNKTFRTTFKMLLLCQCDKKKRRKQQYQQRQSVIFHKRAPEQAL

[19] = target: Mu-type opioid receptor (Homo sapiens) (UniProt P35372); assay: mu (MOP) Eurofins-Cerep binding assay; design: ligand concentration 0.5 nM; details: filed as agonist, Compound concentration 10.0 uM
[20] = target: Sodium-dependent noradrenaline transporter (Homo sapiens) (UniProt P23975); assay: norepinephrine transporter Eurofins-Cerep binding assay; design: ligand concentration 1 nM; details: filed as antagonist, Compound concentration 10.0 uM
Sequence of Sodium-dependent noradrenaline transporter (Homo sapiens) (P23975 whole entry): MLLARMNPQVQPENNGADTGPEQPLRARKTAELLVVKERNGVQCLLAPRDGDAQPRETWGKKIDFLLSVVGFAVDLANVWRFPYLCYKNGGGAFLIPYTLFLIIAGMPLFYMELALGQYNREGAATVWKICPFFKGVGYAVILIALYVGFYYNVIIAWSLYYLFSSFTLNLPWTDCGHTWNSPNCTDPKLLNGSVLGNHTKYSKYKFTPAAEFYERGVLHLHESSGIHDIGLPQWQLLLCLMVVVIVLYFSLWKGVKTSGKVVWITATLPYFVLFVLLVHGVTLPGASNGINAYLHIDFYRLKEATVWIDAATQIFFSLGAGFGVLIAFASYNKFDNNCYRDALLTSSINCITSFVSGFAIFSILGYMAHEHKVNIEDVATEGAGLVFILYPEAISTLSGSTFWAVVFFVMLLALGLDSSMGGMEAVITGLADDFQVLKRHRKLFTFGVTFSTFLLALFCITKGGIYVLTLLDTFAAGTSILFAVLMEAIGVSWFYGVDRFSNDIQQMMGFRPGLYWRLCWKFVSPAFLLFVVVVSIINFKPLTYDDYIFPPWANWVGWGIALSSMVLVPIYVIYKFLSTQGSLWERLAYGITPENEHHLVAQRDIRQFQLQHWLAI

[21] = target: Sodium-dependent serotonin transporter (Homo sapiens) (UniProt P31645); assay: 5-HT transporter Eurofins-Cerep binding assay; design: ligand concentration 2 nM; details: filed as antagonist, Compound concentration 10.0 uM
Sequence of Sodium-dependent serotonin transporter (Homo sapiens) (P31645 whole entry, looked up): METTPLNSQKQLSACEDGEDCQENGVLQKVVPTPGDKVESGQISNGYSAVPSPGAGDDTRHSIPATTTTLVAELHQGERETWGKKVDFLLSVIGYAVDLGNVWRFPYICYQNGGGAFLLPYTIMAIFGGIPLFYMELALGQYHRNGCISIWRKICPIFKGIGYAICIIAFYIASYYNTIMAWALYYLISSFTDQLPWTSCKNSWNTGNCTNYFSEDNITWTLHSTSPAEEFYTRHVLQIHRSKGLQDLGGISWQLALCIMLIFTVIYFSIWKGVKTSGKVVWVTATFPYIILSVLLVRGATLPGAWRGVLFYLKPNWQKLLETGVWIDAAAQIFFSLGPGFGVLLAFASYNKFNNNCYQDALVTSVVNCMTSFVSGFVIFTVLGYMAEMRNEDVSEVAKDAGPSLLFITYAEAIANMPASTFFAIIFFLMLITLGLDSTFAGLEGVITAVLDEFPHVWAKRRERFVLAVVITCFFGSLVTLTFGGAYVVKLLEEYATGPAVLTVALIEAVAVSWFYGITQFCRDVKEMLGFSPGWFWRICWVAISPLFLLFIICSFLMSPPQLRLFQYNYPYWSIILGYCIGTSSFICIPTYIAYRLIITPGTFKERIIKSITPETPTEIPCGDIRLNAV

[22] = target: Vasopressin V1a receptor (Homo sapiens) (UniProt P37288); assay: V1a Eurofins-Cerep binding assay; design: ligand concentration 0.3 nM; details: filed as agonist, Compound concentration 10.0 uM
[23] = target: 5-hydroxytryptamine receptor 7 (Homo sapiens) (UniProt P34969); assay: 5-HT7 Eurofins-Cerep binding assay; design: ligand concentration 4 nM; details: filed as agonist, Compound concentration 10.0 uM
[24] = target: Adenosine receptor A1 (Homo sapiens) (UniProt P30542); assay: A1 Eurofins-Cerep binding assay; design: ligand concentration 1 nM; details: filed as antagonist, Compound concentration 10.0 uM
Sequence of Adenosine receptor A1 (Homo sapiens) (P30542 whole entry): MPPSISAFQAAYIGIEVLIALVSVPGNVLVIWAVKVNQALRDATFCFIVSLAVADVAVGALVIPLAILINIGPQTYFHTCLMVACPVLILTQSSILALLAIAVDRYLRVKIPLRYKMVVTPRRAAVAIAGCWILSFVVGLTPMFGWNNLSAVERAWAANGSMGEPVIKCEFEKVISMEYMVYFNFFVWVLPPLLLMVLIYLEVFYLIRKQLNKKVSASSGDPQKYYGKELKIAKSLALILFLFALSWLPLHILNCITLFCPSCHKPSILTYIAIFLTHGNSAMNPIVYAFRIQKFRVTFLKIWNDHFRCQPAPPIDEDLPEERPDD

[25] = target: Adenosine receptor A3 (Homo sapiens) (UniProt P0DMS8); assay: A3 Eurofins-Cerep binding assay; design: ligand concentration 0.15 nM; details: filed as agonist, Compound concentration 10.0 uM
[26] = target: Type-1 angiotensin II receptor (Homo sapiens) (UniProt P30556); assay: AT1 Eurofins-Cerep binding assay; details: filed as antagonist, Compound concentration 10.0 uM
[27] = target: Melanocortin receptor 4 (Homo sapiens) (UniProt P32245); assay: MC4 Eurofins-Cerep binding assay; design: ligand concentration 0.05 nM; details: filed as agonist, Compound concentration 10.0 uM
[28] = target: Melatonin receptor type 1A (Homo sapiens) (UniProt P48039); assay: MT1 (ML1A) Eurofins-Cerep binding assay; design: ligand concentration 0.01 nM; details: filed as agonist, Compound concentration 10.0 uM
Rattus norvegicus [29] = species on record: Rattus norvegicus; assay: BZD (central) Eurofins-Cerep binding assay; details: filed as agonist, Compound concentration 10.0 uM
[30] = target: Neuropeptide Y receptor type 1 (Homo sapiens) (UniProt P25929); assay: Y1 Eurofins-Cerep binding assay; design: ligand concentration 0.025 nM; details: filed as agonist, Compound concentration 10.0 uM
[31] = target: Neuropeptide Y receptor type 2 (Homo sapiens) (UniProt P49146); assay: Y2 Eurofins-Cerep binding assay; design: ligand concentration 0.015 nM; details: filed as agonist, Compound concentration 10.0 uM
Sequence of Neuropeptide Y receptor type 2 (Homo sapiens) (P49146 whole entry): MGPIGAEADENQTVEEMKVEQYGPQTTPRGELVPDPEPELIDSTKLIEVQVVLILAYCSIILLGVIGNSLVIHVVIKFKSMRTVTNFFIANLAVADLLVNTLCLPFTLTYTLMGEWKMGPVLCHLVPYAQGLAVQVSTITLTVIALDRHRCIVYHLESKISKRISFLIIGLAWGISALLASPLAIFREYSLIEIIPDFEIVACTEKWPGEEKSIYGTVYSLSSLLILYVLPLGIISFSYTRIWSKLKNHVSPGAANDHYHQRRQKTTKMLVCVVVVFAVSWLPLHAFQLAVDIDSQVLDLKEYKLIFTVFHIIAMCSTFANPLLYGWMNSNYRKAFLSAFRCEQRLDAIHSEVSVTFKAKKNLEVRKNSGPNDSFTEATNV

Rattus norvegicus [32] = species on record: Rattus norvegicus; assay: Cl-channel (GABA-gated) Eurofins-Cerep binding assay; design: ligand concentration 3 nM; details: filed as antagonist, Compound concentration 10.0 uM

Sequence of 5-hydroxytryptamine receptor 1B (Homo sapiens) (P28222 whole entry): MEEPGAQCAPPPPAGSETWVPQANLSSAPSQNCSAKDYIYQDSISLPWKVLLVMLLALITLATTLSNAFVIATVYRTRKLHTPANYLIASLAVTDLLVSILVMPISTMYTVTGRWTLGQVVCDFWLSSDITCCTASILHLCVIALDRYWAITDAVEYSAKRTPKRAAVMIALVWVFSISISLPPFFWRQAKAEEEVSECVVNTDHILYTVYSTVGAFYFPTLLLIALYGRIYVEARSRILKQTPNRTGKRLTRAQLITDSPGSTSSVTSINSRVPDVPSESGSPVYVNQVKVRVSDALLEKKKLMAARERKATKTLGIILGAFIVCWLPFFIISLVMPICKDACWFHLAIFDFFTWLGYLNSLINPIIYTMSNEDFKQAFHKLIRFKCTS

In the case of `Cc1cc(C(=O)N2CC[C@@H](C)[C@H](c3cc(C(F)F)nc4ncnn34)C2)cc(C)n1`, the residual activity [1] is reported as 102%, the residual activity [2] is reported as 91% and the residual activity [3] is reported as 99%. For the same compound, the residual activity [4] was 118%, the residual activity [5] was 103% and the residual activity [6] was 55.1%. For the same compound, the residual activity [7] was 96.8%, the residual activity [8] was 104% and the residual activity [9] was 99.2%. It also gave a residual activity [10] of 108%, a residual activity [11] of 90.2% and a residual activity [12] of 102%. It also gave a residual activity [13] of 106%, a residual activity [14] of 103% and a residual activity (Rattus norvegicus [15]) of 93.6%. It also gave a residual activity [16] of 92.8%, a residual activity [17] of 115% and a residual activity [18] of 103%. For the same compound, the residual activity [19] was 96%, the residual activity [20] was 99% and the residual activity [21] was 117%. It also gave a residual activity [22] of 97.3%, a residual activity [23] of 105% and a residual activity [24] of 107%. The residual activity [25] was 104%, the residual activity [26] was 104% and the residual activity [27] was 111%. For the same compound, the residual activity [28] was 109%, the residual activity (Rattus norvegicus [29]) was 105% and the residual activity [30] was 108%. It also gave a residual activity [31] of 109% and a residual activity (Rattus norvegicus [32]) of 102%.
